These results are taken from US9963464B2, “Macrocyclic compounds” (Bayer Pharma Aktiengesellschaft, priority 2014, dated 2018).

pIC50: −log10 of the molar value.

In data set [1] the test system is MOLM-13 cells. The experiment in a line: Proliferation assay MOLM-13. Type of data set: cell-based. The settings on record: Homo sapiens, 72-hour exposure, Cell Titre-Glo, read-out: Inhibition of MOLM-13 cell proliferation IC50. The method, then:
(§1) Cultivated tumour cells (HeLa, human cervical tumour cells, ATCC CCL-2; NCI-H460, human non-small cell lung carcinoma cells, ATCC HTB-177; A2780, human ovarian carcinoma cells, ECACC #93112519; DU 145, hormone-independent human prostate carcinoma cells, ATCC HTB-81; HeLa-MaTu-ADR, multidrug-resistant human cervical carcinoma cells, EPO-GmbH Berlin; Caco-2, human colorectal carcinoma cells, ATCC HTB-37; B16F10, mouse melanoma cells, ATCC CRL-6475) were plated at a density of 5,000 cells/well (DU145, HeLa-MaTu-ADR), 3,000 cells/well (NCI-H460, HeLa), 2,500 cells/well (A2780), 1,500 cells/well (Caco-2), or 1,000 cells/well (B16F10) in a 96-well multititer plate in 200 μL of their respective growth medium supplemented 10% fetal calf serum. […] Cell proliferation was determined by staining the cells with crystal violet: the cells were fixed by adding 20 μl/measuring point of an 11% glutaric aldehyde solution for 15 minutes at room temperature. […] The extinction was determined by photometry at a wavelength of 595 nm. The change of cell number, in percent, was calculated by normalization of the measured values to the extinction values of the zero-point plate (=0%) and the extinction of the untreated (0 μm) cells (=100%). […] Cell viability was assessed after 72-hour exposure with the Cell Titre-Glo Luminescent Cell Viability Assay (Promega). […]

Data set [2] relates to rat hepatocytes. Briefly: In vitro metabolic stability in rat hepatocytes. It counts as in vitro ADME. As to conditions: 1 μM. As to the method: 6. Investigation of In Vitro Metabolic Stability in Rat Hepatocytes
Hepatocytes from Han Wistar rats were isolated via a 2-step perfusion method. After perfusion, the liver was carefully removed from the rat: the liver capsule was opened and the hepatocytes were gently shaken out into a Petri dish with ice-cold Williams medium E (purchased from Sigma Aldrich Life Science, St Louis, Mo.). The resulting cell suspension was filtered through sterile gaze in 50 ml falcon tubes and centrifuged at 50×g for 3 min at room temperature. The cell pellet was resuspended in 30 ml WME and centrifuged through a Percoll® gradient for 2 times at 100×g. The hepatocytes were washed again with Williams' medium E (WME) and resuspended in medium containing 5% Fetal calf serum (FCS, purchased from Invitrogen, Auckland, NZ). Cell viability was determined by trypan blue exclusion.
For the metabolic stability assay liver cells were distributed in WME containing 5% FCS to glass vials at a density of 1.0×10^6 vital cells/ml. The test compound was added to a final concentration of 1 μM. During incubation, the hepatocyte suspensions were continuously shaken and aliquots were taken at 2, 8, 16, 30, 45 and 90 min, to which equal volumes of cold acetonitrile were immediately added. Samples were frozen at −20° C. over night, after subsequently centrifuged for 15 minutes at 3000 rpm and the supernatant was analyzed with an Agilent 1200 HPLC-system with LCMS/MS detection.
The half-life of a test compound was determined from the concentration-time plot. From the half-life the intrinsic clearances were calculated.

Data set [3] can be described thus: In vivo pharmacokinetics in rats. The settings on record: male, Wistar, rat, plasma, iv, i.v. bolus dosing, read-out: t1/2: terminal half-life (converted). As to the method: 7. In Vivo Pharmacokinetics in Rats
For in vivo pharmacokinetic experiments test compounds were administered to male Wistar rats intravenously at doses of 0.3 to 1 mg/kg formulated as solutions using either rat plasma or solubilizers such as PEG400 in well-tolerated amounts.
For pharmacokinetics after intravenous administration test compounds were given as i.v. bolus and blood samples were taken at 2 min, 8 min, 15 min, 30 min, 45 min, 1 h, 2 h, 4 h, 6 h, 8 h and 24 h after dosing. […] Blood was collected into Lithium-Heparin tubes (Monovetten®, Sarstedt) and centrifuged for 15 min at 3000 rpm. An aliquot of 100 μL from the supernatant (plasma) was taken and precipitated by addition of 400 μL ice cold acetonitrile and frozen at −20 OC over night. Samples were subsequently thawed and centrifuged at 3000 rpm, 4° C. for 20 minutes. Aliquots of the supernatants were taken for analytical testing using an Agilent 1200 HPLC-system with LCMS/MS detection. PK parameters were calculated by non-compartmental analysis using a PK calculation software.
PK parameters derived from concentration-time profiles after i.v.: CLplasma: Total plasma clearance of test compound (in L/kg/h); CLblood: Total blood clearance of test compound: CLplasma*Cp/Cb (in L/kg/h) with Cp/Cb being the ratio of concentrations in plasma and blood, AUCnorm: Area under the concentration-time curve from t=0 h to infinity (extrapolated) divided by the administered dose (in kg*h/L); t1/2: terminal half-life (in h).

For data set [4], the system named is A2780 cells. The experiment in a line: Proliferation assay A2780. It counts as cell-based. As to conditions: Homo sapiens, A2780, 96 h; 4 days, crystal violet; read-out: Inhibition of A2780 cell proliferation IC50. The method, then: as §1

For `CS(=N)(=O)Cc1cc2cc(c1)OCCCCOc1cc(F)ccc1-c1nc(ncc1F)N2` (racemic) [Example 1, (rac)-16,20-Difluoro-9-[(S-methylsulfonimidoyl)methyl]-2,3,4,5-tetrahydro-12H-13,17-(azeno)-11,7-(metheno)-1,6,12,14-benzodioxadiazacyclononadecine], the pIC50 in data set [1] was 8.40. The “maximal calculated oral bioavailability (Fmax) based on stability data in rat hepatocytes” value (“maximal calculated oral bioavailability” for short) in data set [2] is given as 69%. In addition, the half-life in data set [3] is 2.2 h.
As to `CS(=N)(=O)Cc1cc2nc(c1)OCCCOc1cc(F)ccc1-c1cc(ncc1F)N2` (racemic) [Example 5, (rac)-15,19-Difluoro-8-[(S-methylsulfonimidoyl)methyl]-3,4-dihydro-2H,11H-10,6-(azeno)-12,16-(metheno)-1,5,11,13-benzodioxadiazacyclooctadecine], the pIC50 in data set [1] was 8.70. In addition, in data set [2], the “maximal calculated oral bioavailability” value is 62%. Besides, the half-life in data set [3] was 7.2 h.
For `CS(=N)(=O)Cc1cc2cc(c1)OCCCOc1cc(F)ccc1-c1nc(ncc1F)N2` (racemic) [Example 15, (rac)-15,19-difluoro-8-[(S-methylsulfonimidoyl)methyl]-3,4-dihydro-2H,11H-12,16-(azeno)-10,6-(metheno)-1,5,11,13-benzodioxadiazacyclooctadecine], the “maximal calculated oral bioavailability” value in data set [2] was 76%. In data set [3], the half-life was 4.9 h.
Consider `CSCc1cc2nc(c1)OCCCCOc1cc(F)ccc1-c1cc(ncc1F)N2` [Example 12, 16,20-Difluoro-9-[(methylsulfanyl)methyl]-2,3,4,5-tetrahydro-12H-11,7-(azeno)-13,17-(metheno)-1,6,12,14-benzodioxadiazacyclononadecine], for which, in data set [4], the pIC50 is 6.94.
